Assay results from ChEMBL document CHEMBL1158462, “Recent advances in the development of polyamine analogues as antitumor agents” (J Med Chem, 2009).

System: MDA-MB-468
Test: Antitumor activity against human MDA-MB-468 cells
Assay type: functional, cell-based
Settings: not given

IC50 [nM]	SMILES
200	CCNCCCNCCCNCCCNCC1CC1

System: Enterocytozoon bieneusi
Test: Antimicrobial activity against Enterocytozoon bieneusi
Assay type: functional, organism-based
Settings: not given

IC50 [nM]	SMILES
130	CCNCCCCNCCCCNCCCCNC/C=C/CNCCCCNCCCCNCCCCNCC

Molecular target: Lysine-specific histone demethylase 1A (Homo sapiens) (UniProt O60341)
Test: not given
Settings: 1 uM

inhibition [%]	SMILES
90.9	N=C(NCCCNCCCCCCCNCCCNC(=N)NC(=N)NCCC(c1ccccc1)c1ccccc1)NC(=N)NCCC(c1ccccc1)c1ccccc1

System: not listed separately
Test: Antitumor activity against human Hs 578T cells
Assay type: functional, cell-based
Settings: not given

IC50 [nM]	SMILES
200	CCNCCCNCCCNCCCNCC1CC1

Molecular target: Histone deacetylase (Homo sapiens) (UniProt Q13547+O15379+Q9UBN7+Q92769+Q9UQL6+Q8WUI4+Q9BY41+Q96DB2+P56524+Q9UKV0+Q969S8)
Test: Inhibition of HDAC from human HeLa cells assessed as induction of histone H3 acetylation at 1 uM
Assay type: cell-based
Settings: not given

inhibition [%]	SMILES
75	O=C(CCCCCCC(=O)NCCCNCCCCNCCC(c1ccccc1)c1ccccc1)NO

System: A549
Test: Antitumor activity against human A549 cells xenografted nu/nu Fox Chase mouse assessed as reduction in tumor growth at 75 mg/kg
Assay type: functional
Design: scale not given: the % may be the effect or the level left
Settings: not given

SMILES	Activity [%]
CCNCCCNCCCNCCCNC[C@H](C)CO	65

System: DU-145
Test: Antitumor activity against human DU145 cells
Assay type: functional, cell-based
Settings: not given

SMILES	IC50 [nM]
CCNCCCNCc1ccccc1CNCCCNCC	> 30000
CCNCCCCNCCCCNCCCCNCCCCNC/C=C/CNCCCCNCCCCNCCCCNCCCCNCC	90
CCNC/C=C\CNCCCCNCCCCNCCCCNCC	250
CCNCCCCNCCCCNCCCCNC/C=C/CNCCCCNCCCCNCCCCNCC	130
CCNCCCNCC1CCC1CNCCCNCC (stereo not given)	≥ 100
CCNCCCCNC[C@H]1C[C@@H]1CNCCCCNC[C@H]1C[C@@H]1CNCCCCNCC	120
CCNCCCNC/C=C\CNCCCNCC	250

Other lines, results leading:

IC50 [nM]	SMILES
≥ 300	CCNCCCNCC1CC1CNCCCNCC (stereo not given)
250	CCNCCCCNC[C@@H]1C[C@H]1NCCCCNCC
60	CCNC[C@H]1C[C@@H]1CNCCCCNC[C@H]1C[C@@H]1CNCC
> 30000	CCNCCCNCC#CCNCCCNCC
100	CCNCCCCNCCCCNCCCCNCCCCNCC

System: T47D
Test: Antitumor activity against human T47D cells
Assay type: functional, cell-based
Settings: not given

IC50 [nM]	SMILES
200	CCNCCCNCCCNCCCNCC1CC1

System: DuPro
Test: Antitumor activity against human DuPro cells
Assay type: functional, cell-based
Settings: not given

IC50 [nM]	SMILES
90	CCNCCCCNCCCCNCCCCNCCCCNC/C=C/CNCCCCNCCCCNCCCCNCCCCNCC
80	CCNC/C=C\CNCCCCNCCCCNCCCCNCC
60	CCNC[C@H]1C[C@@H]1CNCCCCNC[C@H]1C[C@@H]1CNCC
130	CCNCCCCNCCCCNCCCCNC/C=C/CNCCCCNCCCCNCCCCNCC
120	CCNCCCCNC[C@H]1C[C@@H]1CNCCCCNC[C@H]1C[C@@H]1CNCCCCNCC

System: not listed separately
Test: cells
Settings: Mus musculus, ML1
Description: Antitumor activity against mouse ML1 cells

IC50 [nM]	SMILES
10000	O=C(CCCCCCC(=O)NCCCNCCCCNCCC(c1ccccc1)c1ccccc1)NO

System: A549
Test: Antitumor activity against human A549 cells xenografted nu/nu Fox Chase mouse assessed as reduction in tumor growth at 125 mg/kg
Assay type: functional
Design: scale not given: the % may be the effect or the level left
Settings: not given

SMILES	Activity [%]
CCNCCCNCCCNCCCNC[C@H](C)CO	65

System: RKO
Test: Induction of SFRP4 expression in human RKO cells at 1 uM
Assay type: functional
Settings: not given

SMILES	Activity [%]
N=C(NCCCNCCCCCCCNCCCNC(=N)NC(=N)NCCC(c1ccccc1)c1ccccc1)NC(=N)NCCC(c1ccccc1)c1ccccc1	20

System: NCI-H157
Test: Antitumor activity against human NCI-H157 cells by MTT assay
Assay type: functional, cell-based
Settings: not given

IC50 [nM]	SMILES
2200	CCNCCCNCCCNCCCNC[C@H](C)CO
200	CCNCCCNCCCNCCCNCC1CC1

System: MCF7
Test: cells
Assay type: functional, cell-based
Settings: Homo sapiens
Description: Antitumor activity against human MCF7 cells

SMILES	IC50 [nM]
CCNCCCNCc1ccccc1CNCCCNCC	> 30000
CCNCCCNCC1CCC1CNCCCNCC (stereo not given)	≥ 100
CCNCCCNCCCNCCCNCC1CC1	200
CCNCCCNC/C=C\CNCCCNCC	9250

Now from value to compound:

IC50 [nM]	SMILES
≥ 300	CCNCCCNCC1CC1CNCCCNCC (stereo not given)
> 30000	CCNCCCCNC[C@@H]1C[C@H]1NCCCCNCC
> 30000	CCNCCCNCC#CCNCCCNCC

System: HT-29
Test: Antitumor activity against human HT-29 cells
Assay type: functional, cell-based
Settings: not given

SMILES	IC50 [nM]
CCNCCCNCc1ccccc1CNCCCNCC	> 30000
CCNCCCNCC1CCC1CNCCCNCC (stereo not given)	≥ 100
CCNCCCNC/C=C\CNCCCNCC	250

Other lines, results leading:

IC50 [nM]	SMILES
≥ 300	CCNCCCNCC1CC1CNCCCNCC (stereo not given)
250	CCNCCCCNC[C@@H]1C[C@H]1NCCCCNCC
> 30000	CCNCCCNCC#CCNCCCNCC

System: MDA-MB-435
Test: Antitumor activity against human MDA-MB-435 cells
Assay type: functional, cell-based
Settings: not given

IC50 [nM]	SMILES
130	CCNCCCCNCCCCNCCCCNC/C=C/CNCCCCNCCCCNCCCCNCC

System: PC-3
Test: cells
Settings: Homo sapiens
Description: Antitumor activity against human PC3 cells

SMILES	IC50 [nM]
CCNCCCNCc1ccccc1CNCCCNCC	> 30000
CCNCCCCNCCCCNCCCCNCCCCNC/C=C/CNCCCCNCCCCNCCCCNCCCCNCC	90
CCNC/C=C\CNCCCCNCCCCNCCCCNCC	80
CCNCCCCNCCCCNCCCCNC/C=C/CNCCCCNCCCCNCCCCNCC	130
CCNCCCNCC1CCC1CNCCCNCC (stereo not given)	≥ 100
CCNCCCNC/C=C\CNCCCNCC	250

Further lines, results first:

IC50 [nM]	SMILES
≥ 300	CCNCCCNCC1CC1CNCCCNCC (stereo not given)
250	CCNCCCCNC[C@@H]1C[C@H]1NCCCCNCC
> 30000	CCNCCCNCC#CCNCCCNCC
100	CCNCCCCNCCCCNCCCCNCCCCNCC

System: LNCaP
Test: Antitumor activity against human LNCAP cells
Assay type: functional, cell-based
Settings: not given

IC50 [nM]	SMILES
90	CCNCCCCNCCCCNCCCCNCCCCNC/C=C/CNCCCCNCCCCNCCCCNCCCCNCC
80	CCNC/C=C\CNCCCCNCCCCNCCCCNCC
130	CCNCCCCNCCCCNCCCCNC/C=C/CNCCCCNCCCCNCCCCNCC
100	CCNCCCCNCCCCNCCCCNCCCCNCC

System: not listed separately
Test: Antitumor activity against human H82 cells
Assay type: functional, cell-based
Settings: NCI-H82

IC50 [nM]	SMILES
700	CCNCCCNCCCNCCCNC[C@H](C)CO

System: A549
Test: Antitumor activity against human A549 cells
Assay type: functional, cell-based
Settings: not given

SMILES	IC50 [nM]
CCNCCCNCc1ccccc1CNCCCNCC	> 30000
CCNCCCNCCCNCCCNC[C@H](C)CO	700
CCNCCCNCC1CCC1CNCCCNCC (stereo not given)	≥ 100
CCNCCCNC/C=C\CNCCCNCC	250

Other lines, results leading:

IC50 [nM]	SMILES
≥ 300	CCNCCCNCC1CC1CNCCCNCC (stereo not given)
250	CCNCCCCNC[C@@H]1C[C@H]1NCCCCNCC
> 30000	CCNCCCNCC#CCNCCCNCC

System: RKO
Test: Induction of H3K4me2 expression in human RKO cells at 1 uM
Assay type: functional
Settings: not given

SMILES	Activity [%]
N=C(NCCCNCCCCCCCNCCCNC(=N)NC(=N)NCCC(c1ccccc1)c1ccccc1)NC(=N)NCCC(c1ccccc1)c1ccccc1	20

System: RKO
Test: Induction of SFRP5 expression in human RKO cells at 1 uM
Assay type: functional
Settings: not given

SMILES	Activity [%]
N=C(NCCCNCCCCCCCNCCCNC(=N)NC(=N)NCCC(c1ccccc1)c1ccccc1)NC(=N)NCCC(c1ccccc1)c1ccccc1	20

System: not listed separately
Test: Antitumor activity against human U251MG cells
Assay type: functional, cell-based
Settings: U-251

SMILES	IC50 [nM]
CCNCCCNCc1ccccc1CNCCCNCC	> 30000
CCNCCCNCC1CCC1CNCCCNCC (stereo not given)	≥ 100
CCNCCCNC/C=C\CNCCCNCC	250

Continued, values first:

IC50 [nM]	SMILES
≥ 300	CCNCCCNCC1CC1CNCCCNCC (stereo not given)
250	CCNCCCCNC[C@@H]1C[C@H]1NCCCCNCC
> 30000	CCNCCCNCC#CCNCCCNCC

System: NCI-H69
Test: Antitumor activity against human H69 cells
Assay type: functional, cell-based
Settings: not given

IC50 [nM]	SMILES
700	CCNCCCNCCCNCCCNC[C@H](C)CO

System: ZR-75-1
Test: Antitumor activity against human ZR-75-1 cells
Assay type: functional, cell-based
Settings: not given

IC50 [nM]	SMILES
200	CCNCCCNCCCNCCCNCC1CC1
